Measurements reported in the NIST ThermoML archive (doi:10.1021/acs.jced.7b01031).

Settings: Pulse-echo method

Cl [hydrogen chloride]
Liquid
Settings	speed of sound [m/s]
218.3 K	940
224.3 K	910
229.2 K	887
233.1 K	865
243 K	814
248 K	790
252.9 K	762
258 K	734
263 K	705
268 K	676
273 K	646

Fluid (supercritical or subcritical phases)
Settings	speed of sound [m/s]
267 K, 7500 kPa	735
269.9 K, 9700 kPa	740
274.8 K, 13900 kPa	751
279.8 K, 5500 kPa	634
279.8 K, 18000 kPa	761
284.8 K, 8500 kPa	640
284.8 K, 22200 kPa	773
289.7 K, 11800 kPa	652
289.8 K, 26500 kPa	783
292.9 K, 6900 kPa	564
294.8 K, 15600 kPa	666
294.8 K, 30800 kPa	794
295 K, 8000 kPa	567
299.8 K, 19200 kPa	678
300 K, 11100 kPa	582
300 K, 35100 kPa	805
303.1 K, 37700 kPa	810
305 K, 14200 kPa	595
305 K, 22900 kPa	690
305 K, 39300 kPa	814
310 K, 17300 kPa	608
310 K, 26300 kPa	700
315 K, 20400 kPa	621
315 K, 30000 kPa	712
320 K, 10800 kPa	425
320 K, 23500 kPa	632
320 K, 33600 kPa	722
325 K, 12900 kPa	441
325 K, 26600 kPa	643
325 K, 37200 kPa	732
328 K, 39300 kPa	738
330 K, 15100 kPa	456
330 K, 29800 kPa	654
335 K, 17200 kPa	469
335 K, 32900 kPa	665
340 K, 19300 kPa	482
340 K, 36000 kPa	675
345 K, 21500 kPa	494
345 K, 39200 kPa	685
350 K, 23700 kPa	506
355 K, 25900 kPa	517
359.9 K, 21500 kPa	433
360 K, 28000 kPa	527
365 K, 30200 kPa	537
369.9 K, 24900 kPa	454
370 K, 32400 kPa	547
374.9 K, 34600 kPa	556
379.9 K, 28400 kPa	473
379.9 K, 36800 kPa	565
385.9 K, 39400 kPa	575
389.9 K, 31800 kPa	491
394.9 K, 22700 kPa	371
399.9 K, 12100 kPa	324
399.9 K, 35300 kPa	508
404.9 K, 24800 kPa	386
409.9 K, 21600 kPa	356
411.9 K, 39500 kPa	526
414.9 K, 26900 kPa	400
419.9 K, 13200 kPa	339
419.9 K, 23100 kPa	368
424.9 K, 29000 kPa	414
434.9 K, 31000 kPa	426
439.9 K, 14300 kPa	355
439.9 K, 26100 kPa	390
444.9 K, 33100 kPa	438
459.9 K, 29100 kPa	411
460 K, 15500 kPa	369
460 K, 36100 kPa	456
474.9 K, 39200 kPa	472
479.9 K, 16500 kPa	383
479.9 K, 32000 kPa	430
